From patent US9416126B2, “Compounds inhibiting leucine-rich repeat kinase enzyme activity” (Merck Sharp & Dohme Corp., priority 2013, dated 2016)

Key:
Format in all cases: biochemical
[1] = molecular target: T1, LRRK2(G2019S mutation, GST-LRRK2(amino acids 970-2527)) (Homo sapiens (Human), UniProt Q5S007, G2019S); assay: LRRK2 5 mM ATP LanthaScreen Assay
Experimental: The data presented for the 5 mM and Km ATP LanthaScreen™ Assay represents mean IC50 values based on several test results and may have reasonable. deviations depending on the specific conditions and reagents used. Reagents for the LRRK2 5 mM and Km ATP LanthaScreen™ Assay were purchased from Life Technologies Corporation.
LRRK2 5 mM ATP LanthaScreen™ Assay
a) 400 nl of a 1:2.15 serial dilution of test compound(98 μM top assay concentration) is spotted via Labcyte Echo to certain wells in a 384 well black, untreated plate. Control wells contain 400 nl of either DMSO or 400 nl of a known inhibitor in DMSO.
b) 10 μl of a 2.5 nM LRRK2(G2019S mutation, GST-LRRK2(amino acids 970-2527)) enzyme solution in 1× assay buffer(50 mM Tris pH 8.5, 10 mM MgCl2, 0.01% Brij-35, 1.0 mM EGTA, 2 mM DTT, 0.05 mM NaVO4) is added to all wells.
c) A 30 minute room temperature incubation is followed by addition of 10 μl of 800 nM fluorescein labeled LRRKtide peptide substrate and 10 mM ATP solution in 1× assay buffer to all wells.
d) After a 35 minute room temperature incubation, 20 μl of TR-FRET Dilution Buffer(Invitrogen PV3756B) containing 4 nM Tb-labeled anti-phospho LRRKtide antibody and 20 mM EDTA is added to all wells.
e) Plates are incubated at room temperature for 1 hour and read on an Envision™ multi-mode plate reader with LanthaScreen™ settings. Results are analysed using Assay Data Analyzer.

[2] = molecular target: T1, LRRK2(G2019S mutation, GST-LRRK2(amino acids 970-2527)); assay: LRRK2 Km ATP LanthaScreen Assay; conditions: Km ATP (184 μM ATP solution), G2019S LRRK2, mean IC50
Method in brief: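 TR-FRET: GST-LRRK2 970-2527 G2019S (2.5 nM solution) preincubated 30 min with compound (98 μM top, 1:2.15 dilutions), then 800 nM fluorescein-LRRKtide and 184 μM ATP solution added for 60 min at room temperature in Tris pH 8.5 buffer. Stopped with EDTA and Tb anti-phospho-LRRKtide antibody; IC50 is a mean of several tests.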

[3] = molecular target: kinases (Homo sapiens, UniProt P15056, V600E); assay: Kinase selectivity using Z'-LYTE or Adapta; conditions: 1 μM of Example; Z-LYTE platform
Sequence of kinases (Homo sapiens, UniProt P15056, V600E) (P15056 2-766 V600E limits assumed): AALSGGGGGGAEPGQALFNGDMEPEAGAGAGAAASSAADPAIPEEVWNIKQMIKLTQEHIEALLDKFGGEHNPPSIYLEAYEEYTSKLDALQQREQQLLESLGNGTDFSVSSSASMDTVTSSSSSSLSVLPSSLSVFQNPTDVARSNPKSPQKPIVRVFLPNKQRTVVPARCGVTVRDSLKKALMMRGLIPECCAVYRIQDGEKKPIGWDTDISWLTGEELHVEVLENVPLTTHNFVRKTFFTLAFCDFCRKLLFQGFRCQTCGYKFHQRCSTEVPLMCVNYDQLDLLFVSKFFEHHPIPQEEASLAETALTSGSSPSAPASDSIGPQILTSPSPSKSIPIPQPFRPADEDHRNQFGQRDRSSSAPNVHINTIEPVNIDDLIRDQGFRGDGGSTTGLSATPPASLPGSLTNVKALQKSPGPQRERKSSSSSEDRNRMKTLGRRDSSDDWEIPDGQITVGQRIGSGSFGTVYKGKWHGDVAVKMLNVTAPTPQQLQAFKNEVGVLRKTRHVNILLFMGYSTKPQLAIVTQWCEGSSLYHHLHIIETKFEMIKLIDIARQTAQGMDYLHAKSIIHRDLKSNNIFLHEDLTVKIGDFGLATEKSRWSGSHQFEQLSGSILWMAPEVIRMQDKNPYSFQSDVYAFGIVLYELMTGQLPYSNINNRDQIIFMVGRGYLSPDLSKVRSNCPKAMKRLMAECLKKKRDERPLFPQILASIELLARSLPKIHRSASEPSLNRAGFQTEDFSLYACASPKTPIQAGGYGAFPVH

[4] = test system: kinases; assay: Kinase selectivity using Z'-LYTE or Adapta; conditions: 1 μM of Example; for percent inhibition IRAK1: Adapta platform; for percent inhibition AURKB (Aurora B) / percent inhibition CDK1/cyclin B / percent inhibition CHEK2 (CHK2) / percent inhibition CLK2 / percent inhibition DYRK1A / percent inhibition JAK3 / percent inhibition MAPK1 (ERK2) / percent inhibition MAPK8 (JNK1): Z-LYTE platform

T1 sequence (Q5S007 970-2527 G2019S): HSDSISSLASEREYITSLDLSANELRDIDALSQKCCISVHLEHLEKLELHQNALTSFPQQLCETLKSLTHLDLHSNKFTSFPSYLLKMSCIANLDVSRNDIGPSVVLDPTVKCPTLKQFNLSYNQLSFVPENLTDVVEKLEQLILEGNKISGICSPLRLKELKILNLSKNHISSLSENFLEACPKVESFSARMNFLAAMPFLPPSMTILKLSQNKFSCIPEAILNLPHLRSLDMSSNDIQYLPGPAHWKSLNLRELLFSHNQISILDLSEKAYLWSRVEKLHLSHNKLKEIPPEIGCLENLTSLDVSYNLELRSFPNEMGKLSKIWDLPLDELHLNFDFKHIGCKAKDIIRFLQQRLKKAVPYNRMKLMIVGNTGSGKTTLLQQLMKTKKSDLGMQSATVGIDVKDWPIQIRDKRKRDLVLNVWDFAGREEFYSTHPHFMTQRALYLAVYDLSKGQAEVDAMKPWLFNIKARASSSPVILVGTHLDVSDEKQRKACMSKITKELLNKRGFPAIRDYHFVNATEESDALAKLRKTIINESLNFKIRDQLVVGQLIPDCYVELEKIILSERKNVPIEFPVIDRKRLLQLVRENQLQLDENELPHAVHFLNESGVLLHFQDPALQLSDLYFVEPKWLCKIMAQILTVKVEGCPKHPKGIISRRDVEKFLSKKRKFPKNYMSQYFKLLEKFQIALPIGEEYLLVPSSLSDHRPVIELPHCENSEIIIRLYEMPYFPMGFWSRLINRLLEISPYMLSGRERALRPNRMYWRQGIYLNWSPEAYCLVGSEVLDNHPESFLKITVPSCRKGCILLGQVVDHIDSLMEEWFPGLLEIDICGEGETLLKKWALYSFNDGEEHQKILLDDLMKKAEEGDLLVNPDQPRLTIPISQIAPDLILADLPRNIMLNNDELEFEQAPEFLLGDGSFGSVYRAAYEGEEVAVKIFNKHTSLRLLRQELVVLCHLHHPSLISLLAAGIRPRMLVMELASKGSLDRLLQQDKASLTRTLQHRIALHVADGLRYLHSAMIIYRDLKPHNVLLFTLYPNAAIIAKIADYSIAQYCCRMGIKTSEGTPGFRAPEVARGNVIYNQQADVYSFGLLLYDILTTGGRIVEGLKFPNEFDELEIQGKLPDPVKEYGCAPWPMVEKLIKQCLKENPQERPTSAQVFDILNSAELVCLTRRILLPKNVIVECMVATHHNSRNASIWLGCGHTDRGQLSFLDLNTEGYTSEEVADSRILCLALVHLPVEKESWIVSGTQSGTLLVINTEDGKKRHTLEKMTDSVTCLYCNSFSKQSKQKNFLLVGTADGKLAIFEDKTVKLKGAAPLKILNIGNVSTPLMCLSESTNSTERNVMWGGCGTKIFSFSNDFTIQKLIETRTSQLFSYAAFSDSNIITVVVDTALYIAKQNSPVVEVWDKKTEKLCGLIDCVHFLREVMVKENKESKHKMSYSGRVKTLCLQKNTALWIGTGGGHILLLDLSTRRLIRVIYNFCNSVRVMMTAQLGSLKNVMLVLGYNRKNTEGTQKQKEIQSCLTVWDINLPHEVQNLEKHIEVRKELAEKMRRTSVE

Row | Structure (SMILES) | IC50 [1] | IC50 [2] | percent inhibition BRAF V599E [3] | percent inhibition IRAK1 [4] | percent inhibition AURKB (Aurora B) [4] | percent inhibition CDK1/cyclin B [4] | percent inhibition CHEK2 (CHK2) [4] | percent inhibition CLK2 [4] | percent inhibition DYRK1A [4] | percent inhibition JAK3 [4] | percent inhibition MAPK1 (ERK2) [4] | percent inhibition MAPK8 (JNK1) [4]
1 | Cn1cc(-c2ccc3[nH]nc(-c4cc(N5CCOCC5)ncn4)c3c2)cn1 [Example A1] | 41 nM | 2.31 nM |  |  |  |  |  |  |  |  |  | 
2 | Cn1cc(-c2ccc3[nH]nc(-c4cc(N5CCN(S(C)(=O)=O)CC5)ncn4)c3c2)cn1 [Example A3] | 36 nM | 3.28 nM |  |  |  |  |  |  |  |  |  | 
3 | CCN1CCN(c2cc(-c3n[nH]c4ccc(-c5cnn(C)c5)cc34)ncn2)CC1 [Example A8] | 14 nM | 0.76 nM |  |  |  |  |  |  |  |  |  | 
4 | CC(C)Oc1ccc2[nH]nc(-c3cc(N4CCO[C@H](C)C4)ncn3)c2c1 [Example D2] | 67 nM | 5.09 nM | −11% | −7% | 9% | 7% | 1% | 79% | 13% | 8% | 5% | 28%
5 | CC(C)Oc1ccc2[nH]nc(-c3cc(N4CCOCC4)ncn3)c2c1 [Example D6] | 96 nM | 5.95 nM | 2% | −1% | 16% | 7% | 7% | 66% | 12% | 5% | 7% | 28%
6 | CC(C)Oc1ccc2[nH]nc(-c3cc(N4CCN(CCF)CC4)ncn3)c2c1 [Example D15] | 34 nM | 5.5 nM | 28% | −3% | 18% | 10% | 13% | 70% | 30% | 9% | 16% | 56%
7 | CC(C)Oc1cc2c(-c3cc(N4CCN(S(C)(=O)=O)CC4)ncn3)n[nH]c2cc1F [Example D24] | 28 nM | 3.09 nM |  |  |  |  |  |  |  |  |  | 
8 | CC(C)Oc1cc2c(-c3cc(N4CCN(C)CC4)ncn3)n[nH]c2cc1F [Example D25] |  | 4.35 nM | 7% | 15% | 14% | 17% | 8% | 89% | 39% | 8% | 0% | 56%
9 | CC(C)Oc1ccc2[nH]nc(-c3cc(N4CCC5(CCNC5=O)CC4)ncn3)c2c1 [Example D32] | 30 nM | 2.31 nM |  |  |  |  |  |  |  |  |  | 
10 | CC(C)Oc1cc2c(-c3cc(N4C[C@@H](C)O[C@@H](C)C4)ncn3)n[nH]c2cc1F [Example D41] | 22 nM | 2.89 nM |  |  |  |  |  |  |  |  |  | 
11 | COC[C@H](C)Oc1ccc2[nH]nc(-c3cc(N4CCOCC4)ncn3)c2c1 [Example H4] | 33 nM | 2.6 nM |  |  |  |  |  |  |  |  |  | 
12 | COCCN1CCN(c2cc(-c3n[nH]c4ccc(OC(C)C)cc34)ncn2)CC1 [Example K10] | 24 nM | 4.9 nM |  |  |  |  |  |  |  |  |  | 
